The supplement of paper PMC10307832

What was measured:
Test in all cases: relative viability (nuclei count vs DMSO), 5 days (fraction); higher = more cells survive
[1] = compound: O=C1NC(=O)[C@@H](c2cn3c4c(cccc24)CCC3)[C@@H]1c1c[nH]c2ccccc12 [Tivantinib] + O=C(c1cc(Cc2n[nH]c(=O)c3ccccc23)ccc1F)N1CCN(C(=O)C2CC2)CC1 [Olaparib] (partner 8 µM)
In short: (§1)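 Values are medians from duplicate plates. Each reflects relative viability, defined as the nuclei count of treated wells over that of vehicle wells. Lung cancer cell lines in 1536-well plates were pin-tool dosed one day after seeding with one drug alone or with a fixed anchor-drug dose plus five library-drug doses (not always all listed) in √10 steps, then fixed, stained and imaged at 4× after 5 days.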

[2] = compound: O=C1NC(=O)[C@@H](c2cn3c4c(cccc24)CCC3)[C@@H]1c1c[nH]c2ccccc12 [Tivantinib] + CS(=O)(=O)N1CCN(Cc2cc3nc(-c4cccc5[nH]ncc45)nc(N4CCOCC4)c3s2)CC1 [Pictilisib] (partner 1 µM)
In short: as §1

[3] = compound: CC1(COc2ccc3c(c2)ncn3-c2ccc3cccc(N4CCC(N)CC4)c3n2)COC1 [Crenolanib] + CCNC(=O)c1noc(-c2cc(C(C)C)c(O)cc2O)c1-c1ccc(CN2CCOCC2)cc1 [Luminespib] (partner 0.01 µM)
In short: as §1

[4] = compound: CC1(COc2ccc3c(c2)ncn3-c2ccc3cccc(N4CCC(N)CC4)c3n2)COC1 [Crenolanib] + CC(=O)Nc1cccc(-n2c(=O)n(C3CC3)c(=O)c3c(Nc4ccc(I)cc4F)n(C)c(=O)c(C)c32)c1 [Trametinib] (partner 0.02 µM)
In short: as §1

Q: What does the source list for SW 1573?
A: relative viability ([1]; first compound 0.01 µM): 0.532; relative viability ([1]; first compound 0.03162 µM): 0.481; relative viability ([1]; first compound 0.1 µM): 0.544; relative viability ([1]; first compound 0.3162 µM): 0.488; relative viability ([2]; first compound 0.01 µM): 0.491; relative viability ([2]; first compound 0.03162 µM): 0.52; relative viability ([2]; first compound 0.1 µM): 0.406; relative viability ([2]; first compound 0.3162 µM): 0.472; relative viability ([3]; first compound 0.01 µM): 0.833; relative viability ([3]; first compound 0.03162 µM): 0.283; relative viability ([3]; first compound 0.1 µM): 0.152; relative viability ([3]; first compound 0.3162 µM): 0.54; relative viability ([3]; first compound 1 µM): 0.16; relative viability ([4]; first compound 0.01 µM): 0.661; relative viability ([4]; first compound 0.03162 µM): 0.607; relative viability ([4]; first compound 0.1 µM): 0.55; relative viability ([4]; first compound 0.3162 µM): 0.726; relative viability ([4]; first compound 1 µM): 0.579
